Source: ChEMBL document CHEMBL4837183, “Antiproliferative Bufadienolides from the Bulbs of Drimia altissima” (2021)

What was measured:
Type in all cases: functional
[1] = tested on: SF-268; experiment: Growth inhibition of human SF-268 cells measured after 48 hrs by SRB assay
[2] = tested on: SF-295; experiment: Growth inhibition of human SF-295 cells measured after 48 hrs by SRB assay
[3] = tested on: SF-539; experiment: Growth inhibition of human SF-539 cells measured after 48 hrs by SRB assay
[4] = tested on: SNB-19; experiment: Growth inhibition of human SNB-19 cells measured after 48 hrs by SRB assay
[5] = tested on: SNB-75; experiment: Growth inhibition of human SNB-75 cells measured after 48 hrs by SRB assay
[6] = tested on: U-251; experiment: Growth inhibition of human U-251 cells measured after 48 hrs by SRB assay
[7] = tested on: A549; experiment: Growth inhibition of human A549 cells measured after 48 hrs by SRB assay
[8] = tested on: HOP-62; experiment: Growth inhibition of human HOP-62 cells measured after 48 hrs by SRB assay
[9] = tested on: HOP-92; experiment: Growth inhibition of human HOP-92 cells measured after 48 hrs by SRB assay
[10] = tested on: NCI-H226; experiment: Growth inhibition of human NCI-H226 cells measured after 48 hrs by SRB assay
[11] = tested on: NCI-H23; experiment: Growth inhibition of human NCI-H23 cells measured after 48 hrs by SRB assay
[12] = tested on: NCI-H322M; experiment: Growth inhibition of human NCI-H322M cells measured after 48 hrs by SRB assay
[13] = tested on: NCI-H460; experiment: Growth inhibition of human NCI-H460 cells measured after 48 hrs by SRB assay
[14] = tested on: NCI-H522; experiment: Growth inhibition of human NCI-H522 cells measured after 48 hrs by SRB assay
[15] = tested on: PC-3; experiment: Growth inhibition of human PC-3 cells measured after 48 hrs by SRB assay
[16] = tested on: DU-145; experiment: Growth inhibition of human DU-145 cells measured after 48 hrs by SRB assay
[17] = tested on: IGROV-1; experiment: Growth inhibition of human IGROV-1 cells measured after 48 hrs by SRB assay
[18] = tested on: OVCAR-3; experiment: Growth inhibition of human OVCAR-3 cells measured after 48 hrs by SRB assay
[19] = tested on: OVCAR-5; experiment: Growth inhibition of human OVCAR-5 cells measured after 48 hrs by SRB assay
[20] = tested on: OVCAR-8; experiment: Growth inhibition of human OVCAR-8 cells measured after 48 hrs by SRB assay
[21] = tested on: NCI/ADR-RES; experiment: Growth inhibition of human NCI/ADR-RES cells measured after 48 hrs by SRB assay
[22] = tested on: SK-OV-3; experiment: Growth inhibition of human SK-OV-3 cells measured after 48 hrs by SRB assay
[23] = tested on: 786-0; experiment: Growth inhibition of human 786-0 cells measured after 48 hrs by SRB assay
[24] = tested on: A498; experiment: Growth inhibition of human A498 cells measured after 48 hrs by SRB assay
[25] = tested on: ACHN; experiment: Growth inhibition of human ACHN cells measured after 48 hrs by SRB assay
[26] = tested on: CAKI-1; experiment: Growth inhibition of human CAKI-1 cells measured after 48 hrs by SRB assay
[27] = tested on: RXF 393; experiment: Growth inhibition of human RXF 393 cells measured after 48 hrs by SRB assay
[28] = tested on: SN12C; experiment: Growth inhibition of human SN12C cells measured after 48 hrs by SRB assay
[29] = tested on: TK-10; experiment: Growth inhibition of human TK-10 cells measured after 48 hrs by SRB assay
[30] = tested on: UO-31; experiment: Growth inhibition of human UO-31 cells measured after 48 hrs by SRB assay
[31] = tested on: CCRF-CEM; experiment: Growth inhibition of human CCRF-CEM cells measured after 48 hrs by SRB assay
[32] = tested on: HL-60; experiment: Growth inhibition of human HL-60 cells measured after 48 hrs by SRB assay
[33] = tested on: K562; experiment: Growth inhibition of human K562 cells measured after 48 hrs by SRB assay
[34] = tested on: MOLT-4; experiment: Growth inhibition of human MOLT-4 cells measured after 48 hrs by SRB assay
[35] = tested on: SR; experiment: Growth inhibition of human SR cells measured after 48 hrs by SRB assay
[36] = tested on: COLO 205; experiment: Growth inhibition of human COLO 205 cells measured after 48 hrs by SRB assay
[37] = tested on: HCC 2998; experiment: Growth inhibition of human HCC 2998 cells measured after 48 hrs by SRB assay
[38] = tested on: HCT-116; experiment: Growth inhibition of human HCT-116 cells measured after 48 hrs by SRB assay
[39] = tested on: HCT-15; experiment: Growth inhibition of human HCT-15 cells measured after 48 hrs by SRB assay
[40] = tested on: HT-29; experiment: Growth inhibition of human HT-29 cells measured after 48 hrs by SRB assay
[41] = tested on: KM12; experiment: Growth inhibition of human KM12 cells measured after 48 hrs by SRB assay
[42] = tested on: SW-620; experiment: Growth inhibition of human SW-620 cells measured after 48 hrs by SRB assay
[43] = tested on: LOX IMVI; experiment: Growth inhibition of human LOX IMVI cells measured after 48 hrs by SRB assay
[44] = tested on: Malme-3M; experiment: Growth inhibition of human Malme-3M cells measured after 48 hrs by SRB assay
[45] = tested on: M14; experiment: Growth inhibition of human M14 cells measured after 48 hrs by SRB assay
[46] = tested on: MDA-MB-435; experiment: Growth inhibition of human MDA-MB-435 cells measured after 48 hrs by SRB assay
[47] = tested on: SK-MEL-2; experiment: Growth inhibition of human SK-MEL-2 cells measured after 48 hrs by SRB assay
[48] = tested on: SK-MEL-28; experiment: Growth inhibition of human SK-MEL-28 cells measured after 48 hrs by SRB assay
[49] = tested on: SK-MEL-5; experiment: Growth inhibition of human SK-MEL-5 cells measured after 48 hrs by SRB assay
[50] = tested on: UACC-257; experiment: Growth inhibition of human UACC-257 cells measured after 48 hrs by SRB assay
[51] = tested on: UACC-62; experiment: Growth inhibition of human UACC-62 cells measured after 48 hrs by SRB assay
[52] = tested on: MCF7; experiment: Growth inhibition of human MCF7 cells measured after 48 hrs by SRB assay
[53] = tested on: MDA-MB-231; experiment: Growth inhibition of human MDA-MB-231 cells measured after 48 hrs by SRB assay
[54] = tested on: Hs-578T; experiment: Growth inhibition of human Hs-578T cells measured after 48 hrs by SRB assay
[55] = tested on: BT-549; experiment: Growth inhibition of human BT-549 cells measured after 48 hrs by SRB assay
[56] = tested on: T47D; experiment: Growth inhibition of human T47D cells measured after 48 hrs by SRB assay
[57] = tested on: MDA-MB-468; experiment: Growth inhibition of human MDA-MB-468 cells measured after 48 hrs by SRB assay

Structure (SMILES): C[C@]12CC[C@H](O[C@@H]3O[C@H](CO)[C@@H](O)[C@H](O)[C@H]3O)C=C1CC[C@@H]1[C@@H]2[C@@H](O)C[C@]2(C)[C@@H](c3ccc(=O)oc3)CC[C@]12O
- GI50 [1]: 18 nM
- GI50 [2]: 61 nM
- GI50 [3]: 31 nM
- GI50 [4]: 108 nM
- GI50 [5]: 82 nM
- GI50 [6]: 79 nM
- GI50 [7]: 15 nM
- GI50 [8]: 26 nM
- GI50 [9]: 66 nM
- GI50 [10]: 47 nM
- GI50 [11]: 27 nM
- GI50 [12]: 30 nM
- GI50 [13]: 13 nM
- GI50 [14]: 9 nM
- GI50 [15]: 46 nM
- GI50 [16]: 31 nM
- GI50 [17]: 64 nM
- GI50 [18]: 36 nM
- GI50 [19]: 60 nM
- GI50 [20]: 65 nM
- GI50 [21]: 33 nM
- GI50 [22]: 74 nM
- GI50 [23]: 38 nM
- GI50 [24]: 38 nM
- GI50 [25]: 10 nM
- GI50 [26]: 41 nM
- GI50 [27]: 20 nM
- GI50 [28]: 15 nM
- GI50 [29]: 31 nM
- GI50 [30]: 34 nM
- GI50 [31]: 16 nM
- GI50 [32]: 50 nM
- GI50 [33]: 80 nM
- GI50 [34]: 11 nM
- GI50 [35]: 55 nM
- GI50 [36]: 102 nM
- GI50 [37]: 136 nM
- GI50 [38]: 15 nM
- GI50 [39]: 53 nM
- GI50 [40]: 81 nM
- GI50 [41]: 91 nM
- GI50 [42]: 51 nM
- GI50 [43]: 64 nM
- GI50 [44]: 63 nM
- GI50 [45]: 83 nM
- GI50 [46]: 73 nM
- GI50 [47]: 59 nM
- GI50 [48]: 107 nM
- GI50 [49]: 55 nM
- GI50 [50]: 93 nM
- GI50 [51]: 7 nM
- GI50 [52]: 42 nM
- GI50 [53]: 193 nM
- GI50 [54]: 25 nM
- GI50 [55]: 27 nM
- GI50 [56]: 78 nM
- GI50 [57]: 109 nM

Structure (SMILES): C[C@]12CC[C@H](O)C=C1CC[C@@H]1[C@@H]2[C@@H](O)C[C@]2(C)[C@@H](c3ccc(=O)oc3)CC[C@]12O
- GI50 [1]: 538 nM
- GI50 [2]: 660 nM
- GI50 [3]: 577 nM
- GI50 [4]: 3860 nM
- GI50 [5]: 1170 nM
- GI50 [6]: 1280 nM
- GI50 [7]: 353 nM
- GI50 [8]: 454 nM
- GI50 [9]: 2080 nM
- GI50 [10]: 1760 nM
- GI50 [11]: 664 nM
- GI50 [12]: 1230 nM
- GI50 [13]: 365 nM
- GI50 [14]: 377 nM
- GI50 [15]: 1330 nM
- GI50 [16]: 478 nM
- GI50 [17]: 1820 nM
- GI50 [18]: 531 nM
- GI50 [19]: 2360 nM
- GI50 [20]: 780 nM
- GI50 [21]: 657 nM
- GI50 [22]: 2670 nM
- GI50 [23]: 541 nM
- GI50 [24]: 362 nM
- GI50 [25]: 351 nM
- GI50 [26]: 436 nM
- GI50 [27]: 298 nM
- GI50 [28]: 468 nM
- GI50 [29]: 750 nM
- GI50 [30]: 653 nM
- GI50 [31]: 588 nM
- GI50 [32]: 563 nM
- GI50 [33]: 1390 nM
- GI50 [34]: 369 nM
- GI50 [35]: 1100 nM
- GI50 [36]: 3400 nM
- GI50 [37]: 4320 nM
- GI50 [38]: 399 nM
- GI50 [39]: 808 nM
- GI50 [40]: 689 nM
- GI50 [41]: 3200 nM
- GI50 [42]: 559 nM
- GI50 [43]: 1030 nM
- GI50 [44]: 1260 nM
- GI50 [45]: 2570 nM
- GI50 [46]: 1800 nM
- GI50 [47]: 2330 nM
- GI50 [48]: 2970 nM
- GI50 [49]: 703 nM
- GI50 [50]: 2630 nM
- GI50 [51]: 1760 nM
- GI50 [52]: 473 nM
- GI50 [53]: 5420 nM
- GI50 [54]: 337 nM
- GI50 [55]: 371 nM
- GI50 [56]: 1540 nM
- GI50 [57]: 3750 nM
